Measurements as given in the supplement of paper PMC10307832.

Assays:
Experiment in all cases: relative viability (nuclei count vs DMSO), 5 days (fraction); higher = more cells survive
NCI-H1944 = test system: NCI-H1944
Summary of the method: (§1)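 Relative viability is defined as nuclei in treated wells over nuclei in vehicle wells. Duplicate plates were run and medians reported. Lung cancer cell lines in 1536-well plates were dosed by pin tool one day after seeding, with one drug or with a fixed anchor-drug dose plus five library-drug doses (not always all listed) in √10 steps, and nuclei were counted after 5 days.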

NCI-H3122 = test system: NCI-H3122
Summary of the method: as §1

NCI-H460 = test system: NCI-H460
Summary of the method: as §1

NCI-H1915 = test system: NCI-H1915
Summary of the method: as §1

HCC-78 = test system: HCC-78
Summary of the method: as §1

NCI-H1648 = test system: NCI-H1648
Summary of the method: as §1

LK-2 = test system: LK-2
Summary of the method: as §1

PC-14 = test system: PC-14
Summary of the method: as §1

NCI-H727 = test system: NCI-H727
Summary of the method: as §1

HCC-44 = test system: HCC-44
Summary of the method: as §1

NCI-H1975 = test system: NCI-H1975
Summary of the method: as §1

A-427 = test system: A-427
Summary of the method: as §1

HARA = test system: HARA
Summary of the method: as §1

NCI-H2405 = test system: NCI-H2405
Summary of the method: as §1

HCC-366 = test system: HCC-366
Summary of the method: as §1

HCC-15 = test system: HCC-15
Summary of the method: as §1

201T = test system: 201T
Summary of the method: as §1

LCLC-97TM1 = test system: LCLC-97TM1
Summary of the method: as §1

NCI-H1666 = test system: NCI-H1666
Summary of the method: as §1

NCI-H1437 = test system: NCI-H1437
Summary of the method: as §1

SMILES: Nc1cccc2c1CN(C1CCC(=O)NC1=O)C2=O (configuration not stated) [Lenalidomide] + NC(=O)Nc1cc(-c2cccc(F)c2)sc1C(=O)N[C@H]1CCCNC1 [AZD7762] (partner 0.2 µM)
- relative viability (NCI-H1944; first compound 0.253 µM): 0.545
- relative viability (NCI-H1944; first compound 2.53 µM): 0.709
- relative viability (NCI-H1944; first compound 8 µM): 0.386
- relative viability (NCI-H3122; first compound 0.253 µM): 0.938
- relative viability (NCI-H3122; first compound 0.8 µM): 1.03
- relative viability (NCI-H3122; first compound 2.53 µM): 1.06
- relative viability (NCI-H3122; first compound 8 µM): 0.966
- relative viability (NCI-H460; first compound 0.253 µM): 0.578
- relative viability (NCI-H460; first compound 0.8 µM): 0.567
- relative viability (NCI-H460; first compound 2.53 µM): 0.596
- relative viability (NCI-H460; first compound 8 µM): 0.754
- relative viability (NCI-H1915; first compound 0.253 µM): 0.678
- relative viability (NCI-H1915; first compound 0.8 µM): 0.699
- relative viability (NCI-H1915; first compound 2.53 µM): 0.739
- relative viability (NCI-H1915; first compound 8 µM): 0.682
- relative viability (HCC-78; first compound 0.253 µM): 0.767
- relative viability (HCC-78; first compound 0.8 µM): 0.537
- relative viability (HCC-78; first compound 2.53 µM): 0.617
- relative viability (HCC-78; first compound 8 µM): 0.417
- relative viability (NCI-H1648; first compound 0.253 µM): 0.591
- relative viability (NCI-H1648; first compound 2.53 µM): 0.626
- relative viability (NCI-H1648; first compound 8 µM): 0.689
- relative viability (LK-2; first compound 0.253 µM): 0.511
- relative viability (LK-2; first compound 0.8 µM): 0.366
- relative viability (LK-2; first compound 2.53 µM): 0.33
- relative viability (LK-2; first compound 8 µM): 0.206
- relative viability (PC-14; first compound 0.253 µM): 0.384
- relative viability (PC-14; first compound 0.8 µM): 0.297
- relative viability (PC-14; first compound 2.53 µM): 0.386
- relative viability (PC-14; first compound 8 µM): 0.427
- relative viability (NCI-H727; first compound 0.253 µM): 0.655
- relative viability (NCI-H727; first compound 0.8 µM): 0.574
- relative viability (NCI-H727; first compound 2.53 µM): 0.555
- relative viability (NCI-H727; first compound 8 µM): 0.709
- relative viability (HCC-44; first compound 0.253 µM): 0.97
- relative viability (HCC-44; first compound 0.8 µM): 0.836
- relative viability (HCC-44; first compound 2.53 µM): 0.999
- relative viability (HCC-44; first compound 8 µM): 1.14
- relative viability (NCI-H1975; first compound 0.253 µM): 0.8
- relative viability (NCI-H1975; first compound 0.8 µM): 0.642
- relative viability (NCI-H1975; first compound 2.53 µM): 0.776
- relative viability (NCI-H1975; first compound 8 µM): 0.713
- relative viability (A-427; first compound 0.253 µM): 0.793
- relative viability (A-427; first compound 0.8 µM): 0.878
- relative viability (A-427; first compound 2.53 µM): 0.889
- relative viability (A-427; first compound 8 µM): 0.887
- relative viability (HARA; first compound 0.253 µM): 0.173
- relative viability (HARA; first compound 2.53 µM): 0.296
- relative viability (HARA; first compound 8 µM): 0.434
- relative viability (NCI-H2405; first compound 0.253 µM): 0.681
- relative viability (NCI-H2405; first compound 0.8 µM): 0.498
- relative viability (NCI-H2405; first compound 2.53 µM): 0.815
- relative viability (NCI-H2405; first compound 8 µM): 0.821
- relative viability (HCC-366; first compound 0.253 µM): 0.258
- relative viability (HCC-366; first compound 0.8 µM): 0.268
- relative viability (HCC-366; first compound 2.53 µM): 0.371
- relative viability (HCC-366; first compound 8 µM): 0.335
- relative viability (HCC-15; first compound 0.253 µM): 1.11
- relative viability (HCC-15; first compound 0.8 µM): 1.22
- relative viability (HCC-15; first compound 2.53 µM): 1.35
- relative viability (HCC-15; first compound 8 µM): 1.36
- relative viability (201T; first compound 0.253 µM): 0.594
- relative viability (201T; first compound 0.8 µM): 0.848
- relative viability (201T; first compound 2.53 µM): 0.617
- relative viability (201T; first compound 8 µM): 0.529
- relative viability (LCLC-97TM1; first compound 0.253 µM): 0.304
- relative viability (LCLC-97TM1; first compound 0.8 µM): 0.114
- relative viability (LCLC-97TM1; first compound 2.53 µM): 0.364
- relative viability (LCLC-97TM1; first compound 8 µM): 0.222
- relative viability (NCI-H1666; first compound 0.253 µM): 0.895
- relative viability (NCI-H1666; first compound 0.8 µM): 0.716
- relative viability (NCI-H1666; first compound 2.53 µM): 0.985
- relative viability (NCI-H1666; first compound 8 µM): 0.874
- relative viability (NCI-H1437; first compound 0.253 µM): 1.16
- relative viability (NCI-H1437; first compound 0.8 µM): 1.23
- relative viability (NCI-H1437; first compound 2.53 µM): 1.17
- relative viability (NCI-H1437; first compound 8 µM): 1.19
